Results from patent publication US8524755B2 (priority 2009, dated 2013).

How the values were obtained:
Cannabinoid CB2 (h) = molecular target: T1, Cannabinoid CB2 (h) (Homo sapiens, UniProt P34972); test: Binding CB2 (h) (ag); details: read-out: % Inhibition of Control Specific Binding @ 10 μM
T1 construct: expressed in transfected cells; host or cells: CHO cells
Protocol: (§1) Radioligand binding assay methods utilized to measure the activity of compounds of the invention will be familiar to those skilled in the art. In each assay case, the assay components such as, for example, the cell-type, ligand, reference compound and the like, will be familiar to practitioners of such an assay.
(§2) Analysis and Expression of Results: Compounds of the invention were tested in the biochemical assays and percent inhibition of specific binding was determined. The specific ligand binding to the receptors is defined as the difference between the total binding and the nonspecific binding determined in the presence of an excess of unlabelled ligand. The results are expressed as a percent inhibition of control specific binding (100−((measured specific binding/control specific binding)×100)) obtained in the presence of test compounds.

GABA (ns) = test: Binding GABA (ns) (ag); set-up: species or system rat
Protocol: as §1, §2

kainate = test: Binding kainate (ag); set-up: species or system rat
Protocol: as §1, §2

Histamine H1 (h) = molecular target: T2, Histamine H1 (h) (Homo sapiens, UniProt P35367); test: Binding H1 (h) (aa); details: read-out: % Inhibition of Control Specific Binding @ 10 μM
T2 construct: expressed in transfected cells; host or cells: HEK-293 cells
Protocol: as §1, §2

I2 = test: Binding I2 (aa); set-up: species or system rat
Protocol: as §1, §2

PCP = test: Binding PCP (aa); set-up: species or system rat
Protocol: as §1, §2

Vasopressin V1a (h) = molecular target: T3, Vasopressin V1a (h) (Homo sapiens, UniProt P37288); test: Binding V1a (h) (ag); details: read-out: % Inhibition of Control Specific Binding @ 10 μM
T3 construct: expressed in transfected cells; host or cells: CHO cells
Protocol: as §1, §2

Na^+ channel (site 2) = test: Binding Na+ channel (site 2) (aa); set-up: species or system rat
Protocol: as §1, §2

[1] = tested on: Cl^− channel (GABA-gated); test: Binding Cl− channel (GABA-gated) (aa); set-up: species or system rat
Protocol: as §1, §2

[2] = molecular target: T4, choline transporter (CHT1) (h) (Homo sapiens, UniProt Q9GZV3); test: Binding choline transporter (CHT1) (h) (aa); details: read-out: % Inhibition of Control Specific Binding @ 10 μM
T4 construct: expressed in transfected cells; host or cells: CHO cells
T4 sequence (Q9GZV3 1-580): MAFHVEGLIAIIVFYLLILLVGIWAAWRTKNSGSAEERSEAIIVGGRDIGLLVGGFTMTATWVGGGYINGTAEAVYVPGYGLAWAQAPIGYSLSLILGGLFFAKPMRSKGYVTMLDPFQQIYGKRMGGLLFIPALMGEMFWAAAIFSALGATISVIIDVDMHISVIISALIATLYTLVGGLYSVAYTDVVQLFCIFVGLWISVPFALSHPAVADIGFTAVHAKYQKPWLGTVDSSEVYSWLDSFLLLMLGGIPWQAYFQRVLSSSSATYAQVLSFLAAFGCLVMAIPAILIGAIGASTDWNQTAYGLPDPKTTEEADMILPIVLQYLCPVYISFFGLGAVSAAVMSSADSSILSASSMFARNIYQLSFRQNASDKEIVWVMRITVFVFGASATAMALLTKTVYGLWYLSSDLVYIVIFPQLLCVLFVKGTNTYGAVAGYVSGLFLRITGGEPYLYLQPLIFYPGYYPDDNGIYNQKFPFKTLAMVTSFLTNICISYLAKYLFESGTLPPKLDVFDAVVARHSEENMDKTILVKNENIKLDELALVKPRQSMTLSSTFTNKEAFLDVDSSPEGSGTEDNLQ
Protocol: as §1, §2

PDE1B (h) = molecular target: T5, PDE1B (h) (Homo sapiens, UniProt Q01064); test: Enzyme assay PDE1B (h); type: biochemical; details: read-out: % Inhibition of Control Values @ 10 μM
T5 construct: host or cells: Sf9 cells
From the text: (§3) The enzyme assays provided below will be familiar to those skilled in the art.
(§4) Analysis and Expression of Results: The results are expressed as a percent of control specific activity ((measured specific activity/control specific activity)×100) obtained in the presence of the test compounds.

GABA transaminase = molecular target: T6, GABA transaminase (Rattus norvegicus, UniProt P50554); test: Enzyme assay GABA transaminase; type: biochemical; details: read-out: % Inhibition of Control Values @ 10 μM
T6 construct: rat brain; from tissue; host or cells: rat brain
From the text: as §3, §4

ATPase (Na^+/K^+) = test: Enzyme assay ATPase (Na+/K+); type: biochemical, porcine
From the text: as §3, §4

[3] = Quantification of RD162′ metabolites in human plasma; type: in vivo; details: for Concentrations in Patients' Plasma Expressed as a Percentage of the Concentration of RD162′, Average / Concentrations in Patients' Plasma Expressed as a Percentage of the Concentration of RD162′, Maximum / Concentrations in Patients' Plasma Expressed as a Percentage of the Concentration of RD162′, Minimum: 18 patients; for Concentrations in Patients' Plasma Expressed as a Percentage of the Concentration of RD162′, Minimum: RD162′ 150 to 480 mg per day, approx. three months; for concentration in the plasma (in words): plasma of 18 prostate cancer patients on RD162′
Protocol: The method used to derive the above data was as follows. Electrospray LC/MS/MS Assay of RD162′ Metabolites ((MI), (MII), (MIII)):
Plasma Extraction Procedures for Concentration Determinations: A human plasma sample (50 μL) was added to a 10-mL glass tube. A 10-μL volume of IS stock solution was added to the tube, followed by addition of 1 M phosphate buffer at pH 3.0 (400 μL). The mixture was vortexed and […] (5 mL) was added. The tube was vortexed for 30 sec and then centrifuged at 4540 g for 10 min. The solvent was transferred to a glass tube and dried under air flow at 35-40° C. The sample was reconstituted with 100 μL of methanol: 0.1% formic acid in water (7:3) vortexed for 30 sec, and sonicated for 5 min. The sample was transferred to an HPLC sample vial and centrifuged at 4540 g for 5 min. A 20-μL volume was then injected onto an LC/MS/MS system for assay.
HP1100 LC Pump Initial Conditions: HPLC Column: ACE C18, 5 μM, 150×2.1 mm id. Solvents: A % 40.0; B % 60.0; C % 0.0; D % 0.0; Valve A set to channel 1; Valve B set to channel 1. Flow: 0.300 mL/min; Stop Time: 9.0 min; MM. Pressure: 0 bar; Max. Pressure: 300 bar; Oven Temperature Left: 30.0° C.; Oven Temperature Right: 30.0° C.
LC/MS/MS Parameters for RD162′ Metabolite (MI)
Instrument Parameters—Function 1: Polarity ES-; Data type: MRM data; Function type: MRM of 5 channels.
HPLC Column: ACE C18, 5 μM, 150×2.1 mm id; HP1100 LC Pump mode: Isocratic; Isocratic solvent conditions: A % 25.0; B % 75.0; C % 0.0; D % 0.0; Valve A set to channel 1; Valve B set to channel 1; Flow: 0.300 mL/min; Stop Time: 4.5 min; Min. Pressure: 0 bar; Max. Pressure: 300 bar: Oven Temperature Left: 30.0° C.; Oven Temperature Right: 30.0° C.

T5 sequence (Q01064 whole entry): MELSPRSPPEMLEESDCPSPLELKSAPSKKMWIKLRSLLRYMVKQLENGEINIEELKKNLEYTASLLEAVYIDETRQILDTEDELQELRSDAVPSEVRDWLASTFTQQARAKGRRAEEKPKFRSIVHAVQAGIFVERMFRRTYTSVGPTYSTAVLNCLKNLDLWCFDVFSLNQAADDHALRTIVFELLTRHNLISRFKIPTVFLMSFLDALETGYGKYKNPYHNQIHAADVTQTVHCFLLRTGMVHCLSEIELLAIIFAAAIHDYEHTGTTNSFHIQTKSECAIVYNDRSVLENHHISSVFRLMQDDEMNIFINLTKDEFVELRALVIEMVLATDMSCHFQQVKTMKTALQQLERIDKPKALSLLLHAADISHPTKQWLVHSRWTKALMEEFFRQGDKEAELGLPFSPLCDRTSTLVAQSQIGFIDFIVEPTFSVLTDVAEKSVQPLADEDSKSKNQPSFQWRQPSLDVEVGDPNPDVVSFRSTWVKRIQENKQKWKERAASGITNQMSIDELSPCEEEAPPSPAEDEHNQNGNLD
T6 sequence (P50554 28-500): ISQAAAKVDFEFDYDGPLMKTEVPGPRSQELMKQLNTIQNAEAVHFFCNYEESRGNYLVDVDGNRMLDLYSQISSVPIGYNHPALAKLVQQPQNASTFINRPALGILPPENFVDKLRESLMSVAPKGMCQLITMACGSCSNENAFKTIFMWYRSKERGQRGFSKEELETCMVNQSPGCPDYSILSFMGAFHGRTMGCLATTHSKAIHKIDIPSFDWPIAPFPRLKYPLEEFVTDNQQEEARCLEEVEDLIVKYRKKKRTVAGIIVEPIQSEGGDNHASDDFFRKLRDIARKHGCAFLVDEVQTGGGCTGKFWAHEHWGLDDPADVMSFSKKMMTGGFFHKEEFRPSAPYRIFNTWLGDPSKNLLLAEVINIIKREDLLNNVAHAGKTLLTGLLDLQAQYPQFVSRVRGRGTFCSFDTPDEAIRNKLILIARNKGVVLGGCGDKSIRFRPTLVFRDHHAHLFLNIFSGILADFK
T1 sequence (P34972 whole entry): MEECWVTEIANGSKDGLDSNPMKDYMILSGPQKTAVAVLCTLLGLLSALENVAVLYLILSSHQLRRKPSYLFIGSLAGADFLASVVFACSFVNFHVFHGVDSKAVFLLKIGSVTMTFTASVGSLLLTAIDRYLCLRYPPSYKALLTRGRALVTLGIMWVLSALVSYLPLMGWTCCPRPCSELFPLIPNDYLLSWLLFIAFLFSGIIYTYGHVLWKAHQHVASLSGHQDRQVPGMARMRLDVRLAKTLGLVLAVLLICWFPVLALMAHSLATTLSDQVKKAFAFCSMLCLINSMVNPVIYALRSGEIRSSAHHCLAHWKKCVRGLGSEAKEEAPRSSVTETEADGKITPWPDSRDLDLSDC
T2 sequence (P35367 whole entry): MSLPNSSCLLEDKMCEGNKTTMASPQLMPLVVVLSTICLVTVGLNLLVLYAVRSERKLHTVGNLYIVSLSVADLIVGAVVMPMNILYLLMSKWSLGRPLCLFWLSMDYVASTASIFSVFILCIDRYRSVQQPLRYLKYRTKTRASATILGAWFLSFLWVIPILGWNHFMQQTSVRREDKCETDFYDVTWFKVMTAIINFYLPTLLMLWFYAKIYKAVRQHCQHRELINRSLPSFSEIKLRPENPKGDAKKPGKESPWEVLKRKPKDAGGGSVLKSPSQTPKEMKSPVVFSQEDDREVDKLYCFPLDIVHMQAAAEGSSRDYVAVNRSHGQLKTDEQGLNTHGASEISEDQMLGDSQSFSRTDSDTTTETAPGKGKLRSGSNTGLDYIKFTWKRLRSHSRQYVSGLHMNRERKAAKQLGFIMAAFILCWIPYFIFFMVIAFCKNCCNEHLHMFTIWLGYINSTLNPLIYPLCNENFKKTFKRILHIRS
T3 sequence (P37288 whole entry): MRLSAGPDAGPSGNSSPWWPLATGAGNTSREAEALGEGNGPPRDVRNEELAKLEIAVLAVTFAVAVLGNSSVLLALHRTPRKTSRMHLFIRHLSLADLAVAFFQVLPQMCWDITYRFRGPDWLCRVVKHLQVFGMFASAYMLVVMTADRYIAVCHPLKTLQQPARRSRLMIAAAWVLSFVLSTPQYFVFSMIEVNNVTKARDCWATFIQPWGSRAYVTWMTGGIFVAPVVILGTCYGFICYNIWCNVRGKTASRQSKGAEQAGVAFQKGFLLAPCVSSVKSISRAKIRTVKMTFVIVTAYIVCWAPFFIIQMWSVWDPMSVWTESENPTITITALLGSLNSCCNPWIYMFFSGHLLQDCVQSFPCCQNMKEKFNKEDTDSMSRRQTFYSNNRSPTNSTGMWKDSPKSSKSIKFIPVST

SMILES | inhibition at 10 µM (Cannabinoid CB2 (h)) | % Inhibition of Control Specific Binding @ 10 μM (GABA (ns)) | % Inhibition of Control Specific Binding @ 10 μM (kainate) | inhibition at 10 µM (Histamine H1 (h)) | % Inhibition of Control Specific Binding @ 10 μM (I2) | % Inhibition of Control Specific Binding @ 10 μM (PCP) | inhibition at 10 µM (Vasopressin V1a (h)) | % Inhibition of Control Specific Binding @ 10 μM (Na^+ channel (site 2)) | % Inhibition of Control Specific Binding @ 10 μM [1] | inhibition at 10 µM [2] | inhibition at 10 µM (PDE1B (h)) | inhibition at 10 µM (GABA transaminase) | % Inhibition of Control Values @ 10 μM (ATPase (Na^+/K^+)) | Concentrations in Patients' Plasma Expressed as a Percentage of the Concentration of RD162′, Average [3] | Concentrations in Patients' Plasma Expressed as a Percentage of the Concentration of RD162′, Maximum [3] | Concentrations in Patients' Plasma Expressed as a Percentage of the Concentration of RD162′, Minimum [3] | concentration in the plasma (in words) [3]
CC1(C)C(=O)N(c2ccc(C#N)c(C(F)(F)F)c2)C(=S)N1c1ccc(C(=O)O)c(F)c1 [(MI), 4-(3-(4-cyano-3-(trifluoromethyl)phenyl)-5,5-dimethyl-4-oxo-2-thioxoimidazolidin-1-yl)-2-fluorobenzoic acid] | -2% | −12% | −4% | -8% | 28% | 0% | 2% | −5% | 47% | -16% | 0% | -7% | 4% | 60% | 259% | 16% | high concentrations
CC1(C)C(=O)N(c2ccc(C#N)c(C(F)(F)F)c2)C(=S)N1c1ccc(C(N)=O)c(F)c1 [(MII), 4-(3-(4-Cyano-3-(trifluoromethyl)phenyl)-5,5-dimethyl-4-oxo-2-thioxoimidazolidin-1-yl)-2-fluorobenzamide] | 1% | 0% | −21% | 2% | 22% | 5% | 15% | 13% | 81% | -22% | -11% | -5% | −10% | 112% | 204% | 49% | high concentrations
CC1(C)C(=O)N(c2ccc(C#N)c(C(F)(F)F)c2)C(=O)N1c1ccc(C(N)=O)c(F)c1 [(MIII), 4-(3-(4-cyano-3-(trifluoromethyl)phenyl)-5,5-dimethyl-2,4-dioxoimidazolidin-1-yl)-2-fluorobenzamide] | -3% | −10% | −10% | -2% | 20% | 2% | -1% | 1% | 38% | -13% | -8% | -2% | 3% | 4% | 14% | 1% | low concentrations
CNC(=O)c1ccc(N2C(=O)N(c3ccc(C#N)c(C(F)(F)F)c3)C(=O)C2(C)C)cc1F [(MIV), 4-(3-(4-cyano-3-(trifluoromethyl)phenyl)-5,5-dimethyl-2,4-dioxoimidazolidin-1-yl)-2-fluoro-N-methylbenzamide] | 1% | 5% | −8% | -11% | 8% | 4% | -8% | 5% | 36% | 10% | -2% | -1% | −13% |  |  |  | 
